Experimental findings from ChEMBL document CHEMBL5380858 (J Med Chem, 2023) are described below.

For test [1], the system named is SARS-CoV-2. The note with it: dose 60 mg/kg; route po; time 4 day.
The subject of test [2] is SARS-CoV-2. The following applies: dose 30 mg/kg; route po; time 4 day.
Test [3] concerns SARS-CoV-2. The following applies: dose 60 mg/kg; route po; time 4 day. This is another data set of the same source.
Test [4] has as its system SARS-CoV-2. The note with it: dose 30 mg/kg; route po; time 4 day. This is another data set of the same source.
For test [5], the system named is SARS-CoV-2. The note with it: dose 30 mg/kg; route po; time 5 day.
Test [6] deals with SARS-CoV-2. Type of test: functional, organism-based. The following applies: Severe acute respiratory syndrome coronavirus 2; MA10; dose 60.0 mg/kg, route po, time 2-5 day.
Test [7] has as its system SARS-CoV-2. It counts as functional, organism-based. The note with it: Severe acute respiratory syndrome coronavirus 2; MA10; dose 60.0 mg/kg, route po, time 2-5 day. This is another data set of the same source.
Test [8] concerns SARS-CoV-2. Type of test: functional, organism-based. The following applies: Severe acute respiratory syndrome coronavirus 2; MA10; dose 60.0 mg/kg, route po, time 3-5 day.
The test system of test [9] is SARS-CoV-2. Type of test: functional, organism-based. The note with it: Severe acute respiratory syndrome coronavirus 2; MA10; dose 60.0 mg/kg, route po, time 2-5 day. This is another data set of the same source.
The test system of test [10] is SARS-CoV-2. Type of test: functional, organism-based. The following applies: Severe acute respiratory syndrome coronavirus 2; MA10; dose 60.0 mg/kg, route po, time 2-5 day. This is another data set of the same source.
In test [11] the test system is SARS-CoV-2. It counts as functional, organism-based. The note with it: Severe acute respiratory syndrome coronavirus 2; MA10; dose 30.0 mg/kg, route po, time 2-5 day.
For test [12], the system named is SARS-CoV-2. Type of test: functional, organism-based. The note with it: Severe acute respiratory syndrome coronavirus 2; MA10; dose 60.0 mg/kg, route po, time 2-5 day. This is another data set of the same source.
Test [13] has as its system SARS-CoV-2. Type of test: functional, organism-based. The following applies: Severe acute respiratory syndrome coronavirus 2; MA10; dose 30.0 mg/kg, route po, time 2-5 day. The source holds these as a separate data set.
The test system of test [14] is SARS-CoV-2. Type of test: functional, organism-based. The following applies: Severe acute respiratory syndrome coronavirus 2; MA10; dose 30.0 mg/kg, route po, time 2-5 day. The source holds these as a separate data set.
Test [15] deals with SARS-CoV-2. Type of test: functional, organism-based. The note with it: Severe acute respiratory syndrome coronavirus 2; MA10; dose 30.0 mg/kg, route po, time 2.0 day.
The test system of test [16] is SARS-CoV-2. It counts as functional, organism-based. The following applies: Severe acute respiratory syndrome coronavirus 2; MA10; Pneumocyte; dose 30.0 mg/kg, route po, time 2-5 day.
The subject of test [17] is SARS-CoV-2. It counts as functional, organism-based. The note with it: Severe acute respiratory syndrome coronavirus 2; MA10; dose 30.0 mg/kg, route po, time 2-5 day. This is another data set of the same source.
Test [18] concerns SARS-CoV-2. It counts as functional, organism-based. The following applies: Severe acute respiratory syndrome coronavirus 2; MA10; dose 60.0 mg/kg, route po, time 5.0 day.
For test [19], the system named is SARS-CoV-2. The note with it: dose 60 mg/kg; route po; time 5 day.
The test system of test [20] is SARS-CoV-2. Type of test: functional, organism-based. The following applies: Severe acute respiratory syndrome coronavirus 2; MA10; dose 60.0 mg/kg, route po, time 2-5 day. This is another data set of the same source.
Test [21] has as its system SARS-CoV-2. It counts as functional, organism-based. The note with it: Severe acute respiratory syndrome coronavirus 2; MA10; dose 30.0 mg/kg, route po, time 2-5 day. The source holds these as a separate data set.
For test [22], the system named is SARS-CoV-2. It counts as functional, organism-based. The note with it: Severe acute respiratory syndrome coronavirus 2; MA10; dose 30.0 mg/kg, route po, time 2-5 day. The source holds these as a separate data set.
For test [23], the system named is SARS-CoV-2. It counts as functional, organism-based. The following applies: Severe acute respiratory syndrome coronavirus 2; MA10; dose 30.0 mg/kg, route po, time 5.0 day.
Test [24] concerns SARS-CoV-2. It counts as functional, organism-based. The following applies: Severe acute respiratory syndrome coronavirus 2; MA10; dose 60.0 mg/kg, route po, time 2-5 day. This is another data set of the same source.
Test [25] has as its system SARS-CoV-2. It counts as functional, organism-based. The note with it: Severe acute respiratory syndrome coronavirus 2; MA10; dose 30.0 mg/kg, route po, time 2-5 day. The source holds these as a separate data set.
For test [26], the system named is SARS-CoV-2. Type of test: functional, organism-based. The following applies: Severe acute respiratory syndrome coronavirus 2; MA10; Pneumocyte; dose 60.0 mg/kg, route po, time 2-5 day.
Test [27] has as its system SARS-CoV-2. The note with it: dose 30 mg/kg; route po; time 5 day. This is another data set of the same source.
Test [28] relates to SARS-CoV-2. Type of test: functional, organism-based. The note with it: Severe acute respiratory syndrome coronavirus 2; MA10; Pneumocyte; dose 30.0 mg/kg, route po, time 2-5 day. This is another data set of the same source.
The test system of test [29] is SARS-CoV-2. Type of test: functional, organism-based. The following applies: Severe acute respiratory syndrome coronavirus 2; MA10; dose 60.0 mg/kg, route po, time 2-5 day. This is another data set of the same source.
Test [30] concerns SARS-CoV-2. It counts as functional, organism-based. The following applies: Severe acute respiratory syndrome coronavirus 2; MA10; dose 60.0 mg/kg, route po, time 2-5 day. This is another data set of the same source.
In test [31] the test system is SARS-CoV-2. Type of test: functional, organism-based. The note with it: Severe acute respiratory syndrome coronavirus 2; MA10; dose 30.0 mg/kg, route po, time 2-5 day. This is another data set of the same source.
In test [32] the test system is SARS-CoV-2. It counts as functional, organism-based. The following applies: Severe acute respiratory syndrome coronavirus 2; MA10; Pneumocyte; dose 60.0 mg/kg, route po, time 2-5 day. This is another data set of the same source.
For test [33], the system named is SARS-CoV-2. Type of test: functional, organism-based. The following applies: Severe acute respiratory syndrome coronavirus 2; MA10; dose 30.0 mg/kg, route po, time 2-5 day. This is another data set of the same source.
Test [34] has as its system SARS-CoV-2. The note with it: dose 60 mg/kg; route po; time 2 day.
Test [35] has as its system SARS-CoV-2. It counts as functional, organism-based. The following applies: Severe acute respiratory syndrome coronavirus 2; MA10; dose 30.0 mg/kg, route po, time 2-5 day. The source holds these as a separate data set.

The source made the active and inactive calls. The rule behind the calls is not given here.

`CC(C)C(=O)OC[C@H]1O[C@@H](n2cc/c(=N\O)[nH]c2=O)[C@H](O)[C@@H]1O` [MOLNUPIRAVIR]: the “log(activity)” value in the test with SARS-CoV-2 [1] is listed as 2.6; with SARS-CoV-2 [2] it was 2.1; in the test with SARS-CoV-2 [3], 2.9.
As for `CC(C)C(=O)OC[C@H]1O[C@@](C#N)(c2ccc3c(N)ncnn23)[C@H](OC(=O)C(C)C)[C@@H]1OC(=O)C(C)C`, the “log(activity)” value in the test with SARS-CoV-2 [1] and with SARS-CoV-2 [4] was more than 2.9 throughout.
For `CCCCCCCCCCCCCCCCCCOC[C@H](COP(=O)(O)OC[C@H]1O[C@@](C#N)(c2ccc3c(N)ncnn23)[C@H](O)[C@@H]1O)OCc1ccccc1`, the “log(activity)” value in the test with SARS-CoV-2 [5] is more than 2.14; with SARS-CoV-2 [19], more than 2.14; in the test with SARS-CoV-2 [27], more than 2.14; with SARS-CoV-2 [34], 1.52. Besides, the outcome with SARS-CoV-2 [6], with SARS-CoV-2 [7], in the test on SARS-CoV-2 [9], in the test on SARS-CoV-2 [10], with SARS-CoV-2 [11] and with SARS-CoV-2 [12] was inactive. Besides, the outcome in the test on SARS-CoV-2 [13], with SARS-CoV-2 [14], with SARS-CoV-2 [16], in the test on SARS-CoV-2 [17], in the test with SARS-CoV-2 [20] and with SARS-CoV-2 [21] was inactive. Further, the result with SARS-CoV-2 [22], in the test on SARS-CoV-2 [23], in the test on SARS-CoV-2 [24], in the test on SARS-CoV-2 [25], with SARS-CoV-2 [26] and in the test on SARS-CoV-2 [28] was inactive. In addition, the outcome in the test on SARS-CoV-2 [29], with SARS-CoV-2 [30], in the test on SARS-CoV-2 [31], in the test on SARS-CoV-2 [32], in the test with SARS-CoV-2 [33] and in the test on SARS-CoV-2 [35] was inactive. The result with SARS-CoV-2 [8], in the test on SARS-CoV-2 [15] and in the test with SARS-CoV-2 [18] was Active.
